Test [1] deals with human MAIT cells from peripheral blood. In words: Activation of primary MAIT cells from PBMCs (CD69, IFN-γ, TNF-α). Format: cell-based. As to conditions: PBMCs with C1R cells expressing MR1. On the procedure: PBMCs from a healthy donor were mixed with C1R-huMR1 cells (10^5 each/well). Salmonella SL1344 supernatant (2 μl) from cultures grown in LB supplemented with 25 μg/ml streptomycin (Sigma) for 4 hr at 37° C., or compounds (35A, 36A, 48G: 25 μg/ml final, A-6FP: 10 μM final) or PMA (2 ng/ml+ionomycin (1 ng/ml) added in a total volume of 220 μl RF-10, and incubated overnight at 37° C. Cells were stained with anti-CD3-PE-Cy7 (eBioscience, 20 μg/ml), anti-CD4-APC-Cy7 (Biolegend, 1.7 μg/ml), anti-CD161-APC (Miltenyi Biotec, 1:50), FITC-conjugated D5 (anti-MAIT TCR, 10 μg/ml) and either anti-CD69-PE (BD Biosciences 1:50), anti-IFNγ-PE (BD Pharmingen 10 μg/ml) or anti-TNFα-PE (BD Pharmingen 10 μg/ml), and analyzed by flow cytometry using a Canto II cytometer and Diva software. For intracellular cytokine staining, brefeldin A (10 μg/ml) was added to the assay after the first 1 hr and the incubation allowed to proceed overnight. Cells were fixed with 1% parformaldehyde after staining for surface markers and permeabilised with 1% saponin during cytokine stains. MAIT cells were defined as CD3^+, CD4^−, CD161^+, D5^+ after gating on PBMCs using FSC and SSC.
PBMCs from a healthy donor were mixed with C1R cells expressing MR1 (10^5 each/well). Salmonella SL1344 supernatant (2 μl) from cultures grown in LB supplemented with 25 μg/ml streptomycin (Sigma) for 4 hr at 37° C., or compounds (RL-6,7-diMe, RL-6-Me-7-OH, 6FP: 76.2 μM final, rRL-6-HM: 0.152 μM final) or PMA (2 ng/ml+ionomycin (1 ng/ml) added in a total volume of 220 μl RF-10, and incubated overnight at 37° C. Cells were stained with anti-CD3-PE-Cy7 (eBioscience, 20 μg/ml), anti-CD4-APC-Cy7 (Biolegend, 1.7 μg/ml), anti-CD161-APC (Miltenyi Biotec, 1:50), FITC-conjugated D5 (anti-MAIT TCR, 10 μg/ml) and either anti-CD69-PE (BD Biosciences 1:50), anti-IFNγ-PE (BD Pharmingen 10 μg/ml) or anti-TNFα-PE (BD Pharmingen 10 μg/ml), and analyzed by flow cytometry using a Canto II cytometer and Diva software. […] CD69 expression was analysed by flow cytometry. […]

Another test has as its system Jurkat.MAIT cells. In words: Activation of Jurkat.MAIT cells (CD69) with C1R antigen presenting cells expressing MR1. The format is cell-based, human. On the procedure: Jurkat cells transduced with a MAIT TCR comprising the TRAV1-2+TRAJ33 invariant α chain, and a TRBV6-1 β chain were tested for activation by addition of Salmonella supernatant to C1R antigen presenting cells expressing MR1 for 16 hours. Jurkat.MAIT cells were subsequently stained with PE-conjugated anti-CD3, and APC-conjugated anti-CD69 antibodies before analysis by flow cytometry. Activation of Jurkat.MAIT cells was measured by an increase in surface CD69 expression. Compounds to be tested for the ability to activate Jurkat.MAIT cells were tested alongside Salmonella supernatant.
A biological assay for the activation of MAIT T cell receptor (TCR)-expressing T cell lines (into which genes encoding the MAIT TCR alpha and beta chains had been introduced), by antigen presenting cells (expressing MR1 on the cell surface) infected with the bacterium Salmonella typhimurium has been established. This assay measures the increase in expression of the cell surface activation marker, CD69, upon activation of MAIT T cells.

Molecules are shown by their SMILES.

In the case of `Cc1nc2c(=O)[nH]c(=O)nc-2n(C[C@H](O)[C@H](O)[C@H](O)CO)c1C` [Compound 1, 6,7-dimethyl-8-D-ribityllumazine], the “Activation of MAIT cells (CD69 upregulation, intracellular IFN-γ and TNF-α)” value in test [1] is listed as “specifically activated”. In addition, in the test on Jurkat.MAIT cells, the “Activation of Jurkat.MAIT cells (increase in surface CD69)” value is “activated”.

Source of the values: patent US10011602B2, “Immunological reagents and uses therefor” (THE UNIVERSITY OF MELBOURNE, priority 2012, dated 2018).
